For the assay, the system named is guinea pig main bronchus. The assay can be described thus: EFS-induced cholinergic and tachykininergic contraction in the guinea pig main bronchus (organ bath). The note with it: for Cholinergic Contraction, % of the first contraction / Tachykininergic contraction, % of the first contraction: EFS 30 V, 0.5 ms, 8 Hz, 15 s, 10 nmol/L tiotropium bromide and/or 30 μmol/L Compound 2, measured 20 min after addition, indomethacin 5 μmol/L, means ± S.E.M.

Where [1] appears, read: 10 nmol/L tiotropium bromide and/or 30 μmol/L Compound 2, 20 min after addition.

Take `COc1ccc(C(=O)Cc2c(Cl)cncc2Cl)c2c1OC1(CCCC1)O2` [Compound 2]: the “Cholinergic Contraction, % of the first contraction” value is given as 105.8 ± 2.4 % of the first contraction and the “Tachykininergic contraction, % of the first contraction” value is on record as 66.1 ± 6.5 % of the first contraction. The “Effect on EFS-induced tachykininergic contraction (in words)” value under setting [1] is “inhibited the tachykininergic contraction”.

As for tiotropium bromide, the “Cholinergic Contraction, % of the first contraction” value is listed as 59.7 ± 6.3 % of the first contraction and the “Tachykininergic contraction, % of the first contraction” value was 90.9 ± 8.3 % of the first contraction. Moreover, the “Effect on EFS-induced cholinergic contraction (in words)” value under setting [1] is “inhibited the cholinergic contraction”.
